Test results: patent US11174216B2, “Lipids that increase insulin sensitivity and methods of using the same” (Beth Israel Deaconess Medical Center, Inc., priority 2012, dated 2021)

Tests used:
[1] = test system: Human islets; experiment: Insulin release from primary human islet cells; assay type: cell-based; conditions: 45 min
Procedure: Two human donors provided cells used in these studies. Donor 1 was a person, 5′0″, 157 lbs, with a BMI of 30.5, HbA1C was 5.8, who died from a stroke, but it was witnessed and they had no downtime. Islets were 80% pure and 95% viable. After arrival, islets were incubated overnight in human islet media before stimulation with glucose in presence and absence of 5-PAHSA (lipid A-5). Note 1 IU of Human Insulin=6 nmol=34.8 μg Insulin.
Human islets were divided into ten groups [100 islets per condition]
A] Low glucose [2.5 mM]; B] High glucose [20.0 mM]; C] Low glucose [2.5 mM]+2.5 μL/mL Methanol; D] High glucose [20.0 mM]+2.5 μL/mL Methanol; E] Low glucose+20 μM Lipid A-5; F] High glucose+20 μM Lipid A-5; G] Low glucose+50 μM Lipid A-5; H] High glucose+50 μM Lipid A-5.
Islets were cultured overnight in Human Islet media and next day incubated with KRB buffer for 4 h prior to glucose stimulation.
Following KRB incubation, islets were stimulated with glucose [2.5 mM & 20.0 mM] in the presence and absence of Lipid A-5 [20 & 50 μM] for 45 min
At the end of glucose stimulation the amount of insulin released [μ IU/mL] into the media was measured using Human Insulin ELISA kit. And the insulin content from the islets were extracted to express insulin released into the media as μ IU/mL/islet content. […]

[2] = test system: LPS-activated dendritic cells; experiment: LPS-induced maturation/activation of bone marrow-derived dendritic cells; assay type: cell-based, mouse
Procedure: Mouse bone marrow cells were flushed from the femurs and tibiae. The red blood cells were eliminated and the cells plated at a density of 1.0×10^6 cells/mL in RBMI complete medium containing 10% FCS plus 20 ng/ml GM-CSF. The medium was replaced on day 4, and the cells were harvested on day 6 to obtain immature DCs. To obtain mature DCs, LPS was added to the cultures at a final concentration of 100 ng/mL on day 6, and the cells were cultured for an additional 24 h, as previously described by Macia, L., et al. Impairment of dendritic cell functionality and steady-state number in obese mice. J Immunol 177, 5997-6006 (2006), which is incorporated by reference in its entirety. […] The activation status of the BMDCs was evaluated by measuring the expression of MHCII and co-stimulatory molecules using Flow Cytometry and by the production of pro-inflammatory cytokines (IL-6, TNF, IL-12 and IL-1β) which was assessed by ELISA. […]
The immature dendritic cells obtained in the day 6 were maturated with LPS in the presence of different concentrations of 9-PAHSA varying between 100 ng/mL to 20 ug/mL. The cells were maturated for 24 h and the maturation status analyzed by cytokine production and co-stimulatory molecules expression.
The cells were analyzed by Multicolor Flow cytometry. […] The cells were analyzed with an LSR II flow cytometer (BD) and FlowJo software. […]

| Compound | Glucose Stimulated Insulin Secretion ([1]; human islets from Donor 1, 20 and 50 uM) | Glucose Stimulated Insulin Secretion ([1]; human islets from Donor 2, 20 uM) | LPS-induced dendritic cell activation (expression of MHCII, CD40, CD80, CD86) ([2]; 100 ng/mL LPS, 24 h, flow cytometry) | IL-12 production ([2]; LPS-activated dendritic cells, ELISA) |
| --- | --- | --- | --- | --- |
| CCCCCCCCCCCCCCCC(=O)OC(CCCCCCCCCCCCC)CCCC(=O)O (stereo not shown) [5-PAHSA] | induces Glucose Stimulated Insulin Secretion | induces Glucose Stimulated Insulin Secretion | – | – |
| CCCCCCCCCCCCCCCC(=O)OC(CCCCCCCCC)CCCCCCCC(=O)O (stereo not shown) [9-PAHSA, palmitoyl-9-hydroxystearic acid] | – | – | prevents LPS-induced dendritic cell activation in a dose dependent manner | blocks IL-12 production |
